The record followed here is patent US6866870B2 (priority 2002, dated 2005).

For one experiment, the system named is B. cereus. Format: cell-based, Bacillus cereus.
The test system of a further experiment is B. anthracis spores. The class given is cell-based, Bacillus anthracis. Conditions: component alone.
In a further experiment the test system is B. subtilis. The class given is cell-based, Bacillus subtilis.
For another experiment, the system named is B. subtilis spores. The class given is cell-based, Bacillus subtilis.
A further experiment has as its system B. pumilus RJ 0055. The class given is cell-based, Bacillus pumilus.
Experiment [1] has as its system B. pumilus RJ 0055 spores. The class given is cell-based, Bacillus pumilus.
A further experiment concerns L. mesenteroides B 512F. The class given is cell-based, Leuconostoc mesenteroides.
The subject of a further experiment is B. anthracis. Format: cell-based, Bacillus anthracis. As to conditions: vegetative cells; component alone; 24 h.
In experiment [2] the test system is Xanthomonas maltophilia 948. Format: cell-based.
In experiment [3] the test system is Pseudomonas aeruginosa ATCC 1942.
A further experiment relates to B. cereus spores. The class given is cell-based, Bacillus cereus.
[4] abbreviates: vegetative cells, component alone, 24 h.
Where [5] appears, read: component alone, 24 hours at 35° C.

Read-outs that look alike come from different tables or passages of the source.

Consider `OO` [H2O2, hydrogen peroxide], for which the MIC came to 0.025 wt % in the experiment with B. cereus; 1.0 wt % in the experiment with B. anthracis spores; 0.01 wt % against E. coli B ATCC 23226; 0.005 wt % against Listeria monocytogenes; 0.025 wt % against B. subtilis; 5.0 wt % against B. subtilis spores. Further, the MIC with S typhimurium ATCC 14028 turned out to be 0.01 wt %; in the experiment with B. pumilus RJ 0055, 0.025 wt %; in experiment [1], 4.0 wt %; against L. mesenteroides B 512F, 0.006 wt %; in the experiment on B. anthracis, 0.01 wt %; in [2] it was 0.005 wt %. The MIC came to 150 weight ppm in experiment [3] and 5.0 wt % in the experiment with B. cereus spores.

For `[Na+].[O-]Cl` [NaHClO3, sodium hypochlorite], the MIC is reported as 0.1 wt % against B. cereus (setting [4]); 1.0 wt % against B. anthracis spores; 0.02 wt % in the experiment with E. coli B ATCC 23226 (setting [4]); 0.05 wt % in the experiment on Listeria monocytogenes (setting [4]); 0.1 wt % in the experiment on B. subtilis (setting [4]); 4.0 wt % against B. subtilis spores ([…], component alone). Besides, the MIC in the experiment on S typhimurium ATCC 14028 (setting [4]) was determined as 0.02 wt %; in the experiment with B. pumilus RJ 0055 (setting [4]), 0.1 wt %; in experiment [1] ([…], component alone), 3.5 wt %; in the experiment on L. mesenteroides B 512F (setting [4]) it was 0.035 wt %; in the experiment on B. anthracis, 0.05 wt %; in [2] (setting [4]), 0.01 wt %. In addition, the MIC in experiment [3] (setting [5]) worked out at 500 weight ppm; against B. cereus spores ([…], component alone), 4.0 wt %.

Regarding `[Na+].[Na+].[O-][O-]` [Sodium Peroxide, sodium peroxide], the MIC in [3] (setting [5]) was 150 weight ppm.
